These results are taken from patent US8513202B2, “Crystalline form of 1-(β-D-glucopyranosyl)-4-methyl-3-[5-(4-fluorophenyl)-2-thienylmethyl]benzene hemihydrate” (Mitsubishi Tanabe Pharma Corporation, priority 2006, dated 2013).

This data set in a line: stability of the crystalline form compared with the amorphous form. The format is physicochemical. The note with it: compared with the amorphous form of the compound of formula (I); test conditions not given.

Regarding `Cc1ccc([C@@H]2O[C@H](CO)[C@@H](O)[C@H](O)[C@H]2O)cc1Cc1ccc(-c2ccc(F)cc2)s1` [1-(β-D-glucopyranosyl)-4-methyl-3-[5-(4-fluorophenyl)-2-thienylmethyl]benzene hemihydrate], the stability result was “more stable than the amorphous form”.
